Assay results taken from US20160177395A1, “BIOMARKERS FOR THE PREDICTION OF RENAL INJURY” (priority 2007, published 2016).
Where “and” joins values, the source holds several entries; their conditions need not be identical. Identical values can stand only once.

Tested on: kidney tissues of treated or untreated rats
Assay: Real-time qRT-PCR of marker transcripts in kidney tissue panel, discovery stage (Table 22)
Type: in vivo, rat
Set-up: AI502869_DB71_seg0 normalized Real Time PCR expression: unit not given beside the values
Conditions: rat kidney
Outline: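 Rat kidney RNA, DNase-treated until PCR-negative, reverse transcribed with SuperscriptII; SYBR Green real-time PCR, 40 cycles, undetected samples set to Ct 41. Relative quantity from efficiency^-Ct (standard-curve efficiency), normalized to the geometric mean of four median-scaled housekeeping genes, then multiplied by a constant factor.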

[1] = day1, individual animals (F and M)
[2] = day5, individual animals (F and M)
[3] = day28, individual animals (F and M)

Gentamycin
AW919147_DB71_seg0 normalized Real Time PCR expression (day1, individual animals): 1.72 and 0.72 (2×) and 0.76 and 1.1 and 0.99 | BI293562_DB71_seg2 normalized Real Time PCR expression (day1, individual animals): 0.59 and 0.94 and 0.93 and 0.55 and 0.41 | H31045_DB71_seg5 normalized Real Time PCR expression (day1, individual animals): 0.27 and 0.22 and 0.73 and 0.16 and 0.19 and 0.15 | H31799_DB71_seg23 normalized Real Time PCR expression (day1, individual animals): 1.19 and 0.88 and 0.93 and 1 and 1.2 | H31883_DB71_seg13 normalized Real Time PCR expression (day1, individual animals): 0.99 and 0.92 and 0.82 (2×) and 0.61 and 0.73 | H33998_DB71_seg19 normalized Real Time PCR [1]: 1.31 and 0.83 and 0.56 and 1.51 and 1.35 and 0.99 | MUSCYCG1R_DB81_seg15-17 normalized Real Time PCR [1]: 0.63 and 0.53 and 0.66 and 0.5 and 0.49 and 0.41 | RATLRFI_DB71_seg9 normalized Real Time PCR [1]: 0.98 and 1.54 and 1.09 and 2.74 and 1.72 and 0.27 | RATRAB13X_DB71_seg11-13 normalized Real Time PCR [1]: 1.16 and 0.7 and 0.77 and 2.79 and 1.14 and 1.03 | RNU24174_DB71_seg8 normalized Real Time PCR [1]: 0.47 (2×) and 0.5 and 0.74 and 0.37 and 0.26 | W41270_DB81_seg11 normalized Real Time PCR [1]: 1.24 and 0.67 and 1.19 and 0.46 and 0.68 and 0.57 | W64472_DB81_seg2 normalized Real Time PCR [1]: 0.63 and 0.45 and 0.61 and 0.4 and 0.54 (2×) | W83813_DB81_seg27 normalized Real Time PCR [1]: 0.84 and 0.79 and 0.78 and 0.53 and 0.58 and 0.71 | AA686189_DB71_seg6 normalized Real Time PCR expression (day5, individual animals): 0.64 and 0.72 and 1.21 and 0.81 and 0.83 and 0.75 | AA799594_DB71_seg0 normalized Real Time PCR expression (day5, individual animals): 0.99 and 0.89 (2×) and 1.52 and 0.56 and 1.04 | AA964541_DB71_seg0 normalized Real Time PCR expression (day5, individual animals): 0.86 and 0.58 and 0.91 and 0.76 and 0.87 | AI045075_DB71_seg6 normalized Real Time PCR expression (day5, individual animals): 0.76 and 1.04 (2×) and 0.62 and 1.1 and 0 | AI454051_DB71_seg0 normalized Real Time PCR expression (day5, individual animals): 0.63 (2×) and 1.04 and 1.19 and 0.8 and 0.82 | AI502869_DB71_seg0 normalized Real Time PCR expression (day5, individual animals): 0.73 and 0.62 and 0.96 and 0.51 and 0.43 and 0.53 | AW919147_DB71_seg0 normalized Real Time PCR expression (day5, individual animals): 0.86 and 0.88 and 0.95 and 0.71 and 0.79 and 0.78 | BI293562_DB71_seg2 normalized Real Time PCR expression (day5, individual animals): 0.95 and 0.76 and 2.8 and 2.32 and 1.61 and 0.93 | H31045_DB71_seg5 normalized Real Time PCR expression (day5, individual animals): 0.52 and 1.01 and 0.4 and 1.57 and 1.47 and 0.33 | H31799_DB71_seg23 normalized Real Time PCR expression (day5, individual animals): 0.92 and 0.91 and 1.36 and 1.08 and 0.76 and 0.88 | H31883_DB71_seg13 normalized Real Time PCR expression (day5, individual animals): 0.73 and 0.55 and 0.91 and 1.01 and 0.7 and 0.65 | H33998_DB71_seg19 normalized Real Time PCR [2]: 1.9 and 1.5 and 2.19 and 1.91 and 0.83 and 1.16 | MUSCYCG1R_DB81_seg15-17 normalized Real Time PCR [2]: 1.51 (2×) and 1.61 and 0.95 and 0.79 and 1.02 | RATLRFI_DB71_seg9 normalized Real Time PCR [2]: 0.48 and 0.43 and 4.15 and 1.35 and 1.13 and 0.59 | RATRAB13X_DB71_seg11-13 normalized Real Time PCR [2]: 0.9 (2×) and 0.82 and 1.12 and 0.61 and 0.8 | RNU24174_DB71_seg8 normalized Real Time PCR [2]: 0.31 and 0.22 and 0.81 and 0.65 and 0.36 and 0.4 | W41270_DB81_seg11 normalized Real Time PCR [2]: 2.04 and 1.34 and 2.42 and 2.03 and 1.08 and 1.2 | W64472_DB81_seg2 normalized Real Time PCR [2]: 1.5 and 1.2 and 0.94 and 1.95 and 1.62 and 1.61 | W83813_DB81_seg27 normalized Real Time PCR [2]: 2.07 and 1.82 and 1.7 and 1.35 and 0.88 and 1.4 | AA686189_DB71_seg6 normalized Real Time PCR expression (day28, individual animals): 2.7 and 2.09 and 2.48 and 1.98 and 1.23 and 2.51 | AA799594_DB71_seg0 normalized Real Time PCR expression (day28, individual animals): 0.84 and 0.8 and 0.89 and 0.54 and 0.5 and 0.67 | AA964541_DB71_seg0 normalized Real Time PCR expression (day28, individual animals): 3.19 and 1.77 and 2.16 and 3.33 and 1.45 and 3.18 | AI045075_DB71_seg6 normalized Real Time PCR expression (day28, individual animals): 2.09 and 3.14 and 1.74 and 1.25 and 1.99 and 1.29 | AI454051_DB71_seg0 normalized Real Time PCR expression (day28, individual animals): 0.67 and 1 and 0.95 and 1.14 and 0.64 and 0.71 | AI502869_DB71_seg0 normalized Real Time PCR expression (day28, individual animals): 0.66 and 0.74 and 0.73 and 1.36 and 0.92 and 0.77 | AW919147_DB71_seg0 normalized Real Time PCR expression (day28, individual animals): 0.73 and 1.12 and 0.89 and 0.75 and 0.57 and 0.93 | BI293562_DB71_seg2 normalized Real Time PCR expression (day28, individual animals): 2.01 and 1.19 and 0.81 and 0.63 and 0.72 and 1.16 | H31045_DB71_seg5 normalized Real Time PCR expression (day28, individual animals): 0.79 and 0.84 and 0.67 and 1.11 and 4.65 and 0.45 | H31799_DB71_seg23 normalized Real Time PCR expression (day28, individual animals): 0.88 and 1.05 and 1.17 (2×) and 0.37 | H31883_DB71_seg13 normalized Real Time PCR expression (day28, individual animals): 0.88 and 0.98 and 0.96 and 1.05 and 0.64 and 0.8 | H33998_DB71_seg19 normalized Real Time PCR [3]: 0.4 (2×) and 0.7 and 0.56 and 0.49 and 0.42 | MUSCYCG1R_DB81_seg15-17 normalized Real Time PCR [3]: 0.69 and 0.62 and 0.57 and 0.65 and 0.56 and 0.54 | RATLRFI_DB71_seg9 normalized Real Time PCR [3]: 5.63 and 4.17 and 2.43 and 2.56 and 1.59 and 2.51 | RATRAB13X_DB71_seg11-13 normalized Real Time PCR [3]: 0.83 and 1.12 and 0.88 and 1.17 and 0.76 and 1.22 | RNU24174_DB71_seg8 normalized Real Time PCR [3]: 1.53 and 1.2 and 0.59 and 1.91 and 0.69 and 0.65 | W41270_DB81_seg11 normalized Real Time PCR [3]: 0.94 and 0.81 (2×) and 1.42 and 0.75 and 0.84 | W64472_DB81_seg2 normalized Real Time PCR [3]: 0.92 and 0.66 and 0.54 and 1.49 and 0.84 and 0.81 | W83813_DB81_seg27 normalized Real Time PCR [3]: 0.45 and 0.34 and 0.62 and 0.78 and 0.54 and 0.38
